What follows are compounds tested against hMRGX2 (CHO-K1 cells overexpressing MRGX2) (Homo sapiens (Human), UniProt Q96LB1) (assay: In vitro inhibition (EC50) of intracellular calcium flux, FLIPR Tetra, substance P stimulation). Settings: stimulated with MRGX2 ligand substance P, FLIPR Calcium 5, read-out: hMRGX2 Cellular Potency (pEC50) (converted).
hMRGX2 (CHO-K1 cells overexpressing MRGX2), sequence (Q96LB1 whole entry): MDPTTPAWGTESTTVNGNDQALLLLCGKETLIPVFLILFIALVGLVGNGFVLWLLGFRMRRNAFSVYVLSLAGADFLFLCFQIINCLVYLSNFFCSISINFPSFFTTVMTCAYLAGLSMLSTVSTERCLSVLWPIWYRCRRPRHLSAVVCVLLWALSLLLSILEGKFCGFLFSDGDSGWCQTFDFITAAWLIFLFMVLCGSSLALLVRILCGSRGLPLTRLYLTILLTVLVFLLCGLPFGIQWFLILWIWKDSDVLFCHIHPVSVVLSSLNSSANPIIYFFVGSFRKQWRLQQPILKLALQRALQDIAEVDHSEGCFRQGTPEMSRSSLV
Format: cell-based
Procedure: In Vitro Inhibition (EC50) of Intracellular Calcium Flux
The release of intracellular calcium following stimulation of cells with substance P in the presence or absence of inhibitor compounds was measured using the FLIPR Tetra® system. CHO-K1 cells overexpressing MRGX2 were seeded into 384-well plates (Black clear bottom, TC-treated, Fisher #07-200-655) and incubated overnight to allow for cell attachment. Media was removed, and 1× loading buffer (FLIPR® Calcium 5 assay solution, Molecular Devices, per manufacturer specifications) was added. The plates were incubated at 37° C. for 30 minutes. Test compounds were added to cells (11-point dose response, 10 µM maximum concentration) and fluorescence measured (120 seconds, in real time) using the FLIPR Tetra® system. Immediately following, MRGX2 ligand substance P was added at a final concentration of 1 µM and fluorescence measured (120 seconds, in real time) using the FLIPR Tetra® system. The data for the examples are reported as pEC50.
Work on Cn1cccc(CNC2=NS(=O)(=O)c3cccc(-c4cccc(F)c4Cl)c3N2)c1=O [Example 46, 3-(((5-(2-chloro-3-fluorophenyl)-1,1-dioxido-4H-benzo[e][1,2,4]thiadiazin-3-yl)amino)methyl)-1-methylpyridin-2(1H)-one] yielded an EC50 of 87.9 nM. CO[C@H](C)CNC1=NS(=O)(=O)c2cccc(-c3cccc(F)c3Cl)c2N1 [Example 47, (R)-5-(2-chloro-3-fluorophenyl)-3-((2-methoxypropyl)amino)-4H-benzo[e][1,2,4]thiadiazine 1,1-dioxide] gave an EC50 of 93.3 nM. O=S1(=O)N=C(NCc2ncco2)Nc2c(-c3ccnc(F)c3Cl)cccc21 [Example 48, 5-(3-chloro-2-fluoropyridin-4-yl)-3-((oxazol-2-ylmethyl)amino)-4H-benzo[e][1,2,4]thiadiazine 1,1-dioxide] gave an EC50 of 36 nM. In the case of O=S1(=O)N=C(NCc2nccs2)Nc2c(-c3ccnc(F)c3Cl)cccc21 [Example 49, 5-(3-chloro-2-fluoropyridin-4-yl)-3-((thiazol-2-ylmethyl)amino)-4H-benzo[e][1,2,4]thiadiazine 1,1-dioxide], the EC50 is reported as 24.2 nM. With O=S1(=O)N=C(NCC2CC2)Nc2c(-c3ccnc(F)c3Cl)cccc21 [Example 50, 5-(3-chloro-2-fluoropyridin-4-yl)-3-((cyclopropylmethyl)amino)-4H-benzo[e][1,2,4]thiadiazine 1,1-dioxide] the EC50 was 70.8 nM. O=S1(=O)N=C(NCc2ncccc2F)Nc2c(-c3ccnc(F)c3Cl)cccc21 [Example 51, 5-(3-chloro-2-fluoropyridin-4-yl)-3-(((3-fluoropyridin-2-yl)methyl)amino)-4H-benzo[e][1,2,4]thiadiazine 1,1-dioxide] was tested, and the EC50 was 19 nM. In the case of CCNC1=NS(=O)(=O)c2cccc(-c3ccnc(F)c3Cl)c2N1 [Example 52, 5-(3-chloro-2-fluoropyridin-4-yl)-3-(ethylamino)-4H-benzo[e][1,2,4]thiadiazine 1,1-dioxide], the EC50 is reported as 131 nM. Compound O=S1(=O)N=C(NCC(F)F)Nc2c(-c3ccnc(F)c3Cl)cccc21 [Example 53, 5-(3-chloro-2-fluoropyridin-4-yl)-3-((2,2-difluoroethyl)amino)-4H-benzo[e][1,2,4]thiadiazine 1,1-dioxide] has an EC50 of 575 nM. O=S1(=O)N=C(NCc2ccc(F)cc2)Nc2c(-c3ccnc(F)c3Cl)cccc21 [Example 54, 5-(3-chloro-2-fluoropyridin-4-yl)-3-((4-fluorobenzyl)amino)-4H-benzo[e][1,2,4]thiadiazine 1,1-dioxide] showed an EC50 of 13.2 nM. Work on N#Cc1cnc(CNC2=NS(=O)(=O)c3cccc(-c4ccnc(F)c4Cl)c3N2)s1 [Example 55, 2-(((5-(3-chloro-2-fluoropyridin-4-yl)-1,1-dioxido-4H-benzo[e][1,2,4]thiadiazin-3-yl)amino)methyl)thiazole-5-carbonitrile] yielded an EC50 of 136 nM. CNC1=NS(=O)(=O)c2cccc(-c3ccnc(F)c3Cl)c2N1 [Example 56, 5-(3-chloro-2-fluoropyridin-4-yl)-3-(methylamino)-4H-benzo[e][1,2,4]thiadiazine 1,1-dioxide] was tested, and the EC50 was 282 nM. In the case of CN1CCOC(CNC2=NS(=O)(=O)c3cccc(-c4cccc(F)c4Cl)c3N2)C1 (stereo not shown) [Example 57, 5-(2-chloro-3-fluorophenyl)-3-(((4-methylmorpholin-2-yl)methyl)amino)-4H-benzo[e][1,2,4]thiadiazine 1,1-dioxide], the EC50 is reported as 173 nM. CCOC(C)CNC1=NS(=O)(=O)c2cccc(-c3cccc(F)c3Cl)c2N1 (stereo not shown) [Example 58, 5-(2-chloro-3-fluorophenyl)-3-((2-ethoxypropyl)amino)-4H-benzo[e][1,2,4]thiadiazine 1,1-dioxide] showed an EC50 of 179 nM. Cc1nn(C)cc1-c1cccc2c1NC(NCc1ccc(Cl)cn1)=NS2(=O)=O [Example 59, 3-(((5-chloropyridin-2-yl)methyl)amino)-5-(1,3-dimethyl-1H-pyrazol-4-yl)-4H-benzo[e][1,2,4]thiadiazine 1,1-dioxide] gave an EC50 of 248 nM. COC(C)CNC1=NS(=O)(=O)c2cccc(-c3cn(C)nc3C)c2N1 (stereo not shown) [Example 60, 5-(1,3-dimethyl-1H-pyrazol-4-yl)-3-((2-methoxypropyl)amino)-4H-benzo[e][1,2,4]thiadiazine 1,1-dioxide] was tested, and the EC50 was 865 nM. Compound Cc1nn(C)cc1-c1cccc2c1NC(NCC1CCC1)=NS2(=O)=O [Example 61, 3-((cyclobutylmethyl)amino)-5-(1,3-dimethyl-1H-pyrazol-4-yl)-4H-benzo[e][1,2,4]thiadiazine 1,1-dioxide] has an EC50 of 430 nM. CN(C)C(=O)CNC1=NS(=O)(=O)c2cccc(-c3cccc(F)c3Cl)c2N1 [Example 62, 2-((5-(2-chloro-3-fluorophenyl)-1,1-dioxido-4H-benzol[e][1,2,4]thiadiazin-3-yl)amino)-N,N-dimethylacetamide] was tested, and the EC50 was 279 nM. Work on COCCNC1=NS(=O)(=O)c2cccc(-c3ccccc3C3CC3)c2N1 [Example 63, 5-(2-cyclopropylphenyl)-3-((2-methoxyethyl)amino)-4H-benzo[e][1,2,4]thiadiazine 1,1-dioxide] yielded an EC50 of 953 nM. With O=S1(=O)N=C(NCc2ccsn2)Nc2c(-c3cccc(F)c3Cl)cccc21 [Example 64, 5-(2-chloro-3-fluorophenyl)-3-((isothiazol-3-ylmethyl)amino)-4H-benzo[e][1,2,4]thiadiazine 1,1-dioxide] the EC50 was 15.6 nM. Compound O=S1(=O)N=C(NCCc2ccccn2)Nc2c(-c3cccc(F)c3Cl)cccc21 [Example 67, 5-(2-chloro-3-fluorophenyl)-3-((2-(pyridin-2-yl)ethyl)amino)-4H-benzo[e][1,2,4]thiadiazine 1,1-dioxide] has an EC50 of 36.6 nM. O=S1(=O)N=C(NCCc2ccncc2)Nc2c(-c3cccc(F)c3Cl)cccc21 [Example 68, 5-(2-chloro-3-fluorophenyl)-3-((2-(pyridin-4-yl)ethyl)amino)-4H-benzo[e][1,2,4]thiadiazine 1,1-dioxide] showed an EC50 of 305 nM. O=S1(=O)N=C(NCCc2cccnc2)Nc2c(-c3cccc(F)c3Cl)cccc21 [Example 69, 5-(2-chloro-3-fluorophenyl)-3-((2-(pyridin-3-yl)ethyl)amino)-4H-benzo[e][1,2,4]thiadiazine 1,1-dioxide] gave an EC50 of 601 nM. COc1cccc(CCNC2=NS(=O)(=O)c3cccc(-c4cccc(F)c4Cl)c3N2)c1 [Example 70, 5-(2-chloro-3-fluorophenyl)-3-((3-methoxyphenethyl)amino)-4H-benzo[e][1,2,4]thiadiazine 1,1-dioxide] gave an EC50 of 57.9 nM. In the case of COc1ccccc1CCNC1=NS(=O)(=O)c2cccc(-c3cccc(F)c3Cl)c2N1 [Example 71, 5-(2-chloro-3-fluorophenyl)-3-((2-methoxyphenethyl)amino)-4H-benzo[e][1,2,4]thiadiazine 1,1-dioxide], the EC50 is reported as 82.8 nM. COc1ccc(CCNC2=NS(=O)(=O)c3cccc(-c4cccc(F)c4Cl)c3N2)cc1 [Example 72, 5-(2-chloro-3-fluorophenyl)-3-((4-methoxyphenethyl)amino)-4H-benzo[e][1,2,4]thiadiazine 1,1-dioxide] showed an EC50 of 39.8 nM. Work on O=S1(=O)N=C(NCCC2CCCO2)Nc2c(-c3cccc(F)c3Cl)cccc21 (stereo not shown) [Example 73, 5-(2-chloro-3-fluorophenyl)-3-((2-(tetrahydrofuran-2-yl)ethyl)amino)-4H-benzo[e][1,2,4]thiadiazine 1,1-dioxide] yielded an EC50 of 139 nM. Cc1cc(NC2=NS(=O)(=O)c3cccc(-c4cccc(F)c4Cl)c3N2)nn1C(C)C [Example 74, 5-(2-chloro-3-fluorophenyl)-3-((1-isopropyl-5-methyl-1H-pyrazol-3-yl)amino)-4H-benzo[e][1,2,4]thiadiazine 1,1-dioxide] showed an EC50 of 746 nM. For O=S1(=O)N=C(NCc2ccc(F)cc2)Nc2c(-c3cc(F)cc(F)c3)cccc21 [Example 75, 5-(3,5-difluorophenyl)-3-((4-fluorobenzyl)amino)-4H-benzo[e][1,2,4]thiadiazine 1,1-dioxide], the EC50 was 34.6 nM. With O=S1(=O)N=C(NCc2cc(F)ccc2F)Nc2c(-c3cc(F)cc(F)c3)cccc21 [Example 76, 3-((2,5-difluorobenzyl)amino)-5-(3,5-difluorophenyl)-4H-benzo[e][1,2,4]thiadiazine 1,1-dioxide] the EC50 was 34.8 nM. O=S1(=O)N=C(NCc2ccccc2F)Nc2c(-c3cc(F)cc(F)c3)cccc21 [Example 77, 5-(3,5-difluorophenyl)-3-((2-fluorobenzyl)amino)-4H-benzo[e][1,2,4]thiadiazine 1,1-dioxide] was tested, and the EC50 was 34.9 nM. For O=S1(=O)N=C(NCc2c(F)cccc2F)Nc2c(-c3cc(F)cc(F)c3)cccc21 [Example 78, 3-((2,6-difluorobenzyl)amino)-5-(3,5-difluorophenyl)-4H-benzo[e][1,2,4]thiadiazine 1,1-dioxide], the EC50 was 224 nM. Work on Cc1cccc(CNC2=NS(=O)(=O)c3cccc(-c4cc(F)cc(F)c4)c3N2)n1 [Example 79, 5-(3,5-difluorophenyl)-3-(((6-methylpyridin-2-yl)methyl)amino)-4H-benzo[e][1,2,4]thiadiazine 1,1-dioxide] yielded an EC50 of 368 nM. O=S1(=O)N=C(NCCc2ccccn2)Nc2c(-c3cc(F)cc(F)c3)cccc21 [Example 80, 5-(3,5-difluorophenyl)-3-((2-(pyridin-2-yl)ethyl)amino)-4H-benzo[e][1,2,4]thiadiazine 1,1-dioxide] was tested, and the EC50 was 897 nM. Compound O=S1(=O)N=C(NCC2CCC2)Nc2c(-c3cc(F)cc(F)c3)cccc21 [Example 81, 3-((cyclobutylmethyl)amino)-5-(3,5-difluorophenyl)-4H-benzo[e][1,2,4]thiadiazine 1,1-dioxide] has an EC50 of 384 nM.

— patent US12247015B2, “3-amino-4H-benzo[e][1,2,4]thiadiazine 1,1-dioxide derivatives as inhibitors of MRGX2” (Solent Therapeutics, LLC, priority 2019, dated 2025)
